From patent US20110086916A1, “INTERVAL THERAPY FOR THE TREATMENT OF TINNITUS” (MERZ PHARMA GmbH & CO. KGaA, priority 2007, published 2011)

Test system: subjects with subjective tinnitus of at least moderate severity
Experiment: Double blind placebo controlled pilot trial of neramexane for treatment of tinnitus (TBF-12 score)
Assay type: in vivo, human
Details: for Change in the TBF-12 total score from baseline, Change LSMean: ANCOVA
Procedure: Visit 1 (screening): After signing the consent form, the subject underwent a physical examination and clinical laboratory testing. Patient eligibility for the study was evaluated via a check of inclusion/exclusion criteria. An initial Tinnitus Interview was conducted. The subject also completed a Tinnitus-Beeinträchtigungs-Fragebogen (TBF-12) (i.e., a 12-item German modified and validated version (Greimel K V et al., Tinnitus-Beeinträchtigungs-Fragebogen (TBF-12). Manual. Frankfurt am Main: Swets & Zeitlinger B.V.; 2000) of the 25-item Tinnitus Handicap Inventory or THI (Newman C W, et al. Development of the Tinnitus Handicap Inventory. Arch Otolaryngol Head Neck Surg 1996; 122(2): 143-148; Newman C W, et al. Psychometric adequacy of the Tinnitus Handicap Inventory (THI) for evaluating treatment outcome. J Am Acad Audiol 1998; 9(2): 153-160.)), a Hospital Anxiety and Depression Scale—Depression Subscale (HADS-D) Questionnaire and a Hyperacusis (Geräuschüberempfindlichkeit-Fragenbogen (GÜF)) Questionnaire (if applicable).
Visit 2 (baseline): The subject was asked about adverse events and changes in concomitant medication/disease, which events/changes were documented. The subject was evaluated for study eligibility based on a review of the inclusion/exclusion criteria. Trial procedures as well as allowed and forbidden concomitant medications were reviewed with the subject. An initial Tinnitus Interview was conducted. The subject also completed a TBF-12, HADS-D Questionnaire and GÜF Questionnaire (if applicable). The subject was enrolled in the study and study medication (placebo or neramexane) was dispensed as described below.
Visit 3 (Week 4): This visit occurred at the end of the 4-week up-titration sequence. The subject was asked about adverse events and changes in concomitant medication/disease, which events/changes were documented. A follow-up Tinnitus Interview was conducted. The subject also completed a TBF-12, HADS-D Questionnaire and GÜF Questionnaire (if applicable). Medication compliance was assessed, and medication for the next 4 weeks was dispensed as described below.
(§1) Visit 4 (Week 8): This visit occurred at the end of the first 4-week fixed-dose double-blind treatment period. The subject was asked about adverse events and changes in concomitant medication/disease, which changes are documented. Blood samples were collected in order to determine neramexane pre-dose concentration. A follow-up Tinnitus Interview was conducted. The subject also completed a TBF-12, HADS-D Questionnaire and GÜF Questionnaire (if applicable). Medication compliance was assessed and, medication for the next 4 weeks was dispensed as described below.
as §1, with “Visit 5” for “Visit 4”, “(Week 12):” for “(Week 8):”, “the second” for “the first”, “documented.” for “documented. Blood samples were collected in order to determine neramexane pre-dose concentration.”
Visit 6 (Week 16, end of treatment): This visit occurred at the end of the 12-week fixed-dose double-blind treatment period. The subject was asked about adverse events and changes in concomitant medication/disease, which changes are documented. A clinical laboratory evaluation was performed. A follow-up Tinnitus Interview was conducted, and the subject completed a TBF-12, HADS-D Questionnaire and GÜF Questionnaire (if applicable). Pure-tone audiometry (air conduction) was also conducted.
Visit 7 (Week 20): This visit occurred at the end of the 4-week follow-up period after the last study medication dose. Review of concomitant medications as well as the occurrence of adverse events since the last visit is conducted with subject. […]

[1] = 25 mg/d, Week 4, ITT-LOCF, n=106
[2] = 25 mg/d, Week 8, ITT-LOCF, n=106
[3] = 25 mg/d, Week 12, ITT-LOCF, n=106
[4] = 25 mg/d, Week 16 (end of treatment), ITT-LOCF, n=106
[5] = 25 mg/d, Week 20 (Follow-up, 4 weeks without treatment), ITT-LOCF, n=100
[6] = 50 mg/d, Week 4, ITT-LOCF, n=106
[7] = 50 mg/d, Week 8, ITT-LOCF, n=106
[8] = 50 mg/d, Week 12, ITT-LOCF, n=106
[9] = 50 mg/d, Week 16 (end of treatment), ITT-LOCF, n=106
[10] = 50 mg/d, Week 20 (Follow-up, 4 weeks without treatment), ITT-LOCF, n=95
[11] = 75 mg/d, Week 4, ITT-LOCF, n=99
[12] = 75 mg/d, Week 8, ITT-LOCF, n=99
[13] = 75 mg/d, Week 12, ITT-LOCF, n=99
[14] = 75 mg/d, Week 16 (end of treatment), ITT-LOCF, n=99
[15] = 75 mg/d, Week 20 (Follow-up, 4 weeks without treatment), ITT-LOCF, n=89

## CC1(C)CC(C)(C)CC(C)(N)C1 [Neramexane, 1-amino-1,3,3,5,5-pentamethylcyclohexane]
25 mg/d, Week 4, ITT-LOCF
  Change in the TBF-12 total score from baseline, Change LSMean: −0.8
[1]
  Change in the TBF-12 total score from baseline, Change Mean ± SD: −1.0 ± 2.6
  TBF-12 total score, Actual Mean ± SD: 13.4 ± 4.5
25 mg/d, Week 4, ITT-LOCF, 95% CI [−0.8, 0.7], p-value 0.875
  Change in TBF-12 total score, Neramexane - Placebo LSMean Diff. ± SE: −0.1 ± 0.4
25 mg/d, Week 8, ITT-LOCF
  Change in the TBF-12 total score from baseline, Change LSMean: −1.5
[2]
  Change in the TBF-12 total score from baseline, Change Mean ± SD: −1.7 ± 2.9
  TBF-12 total score, Actual Mean ± SD: 12.7 ± 4.9
25 mg/d, Week 8, ITT-LOCF, 95% CI [−0.5, 1.2], p-value 0.429
  Change in TBF-12 total score, Neramexane - Placebo LSMean Diff. ± SE: 0.3 ± 0.4
25 mg/d, Week 12, ITT-LOCF
  Change in the TBF-12 total score from baseline, Change LSMean: −1.4
[3]
  Change in the TBF-12 total score from baseline, Change Mean ± SD: −1.6 ± 3.4
  TBF-12 total score, Actual Mean ± SD: 12.8 ± 5.0
25 mg/d, Week 12, ITT-LOCF, 95% CI [−0.3, 1.6], p-value 0.182
  Change in TBF-12 total score, Neramexane - Placebo LSMean Diff. ± SE: 0.6 ± 0.5
25 mg/d, Week 16 (end of treatment), ITT-LOCF
  Change in the TBF-12 total score from baseline, Change LSMean: −1.8
[4]
  Change in the TBF-12 total score from baseline, Change Mean ± SD: −2.0 ± 3.4
  TBF-12 total score, Actual Mean ± SD: 12.4 ± 5.3
25 mg/d, Week 16 (end of treatment), ITT-LOCF, 95% CI [−0.5, 1.5], p-value 0.359
  Change in TBF-12 total score, Neramexane - Placebo LSMean Diff. ± SE: 0.5 ± 0.5
25 mg/d, Week 20 (Follow-up), ITT-LOCF, 95% CI [−0.6, 1.6], p-value 0.336
  Change in TBF-12 total score, Neramexane - Placebo LSMean Diff. ± SE: 0.5 ± 0.6
25 mg/d, Week 20 (Follow-up, 4 weeks without treatment), ITT-LOCF
  Change in the TBF-12 total score from baseline, Change LSMean: −2.0
[5]
  Change in the TBF-12 total score from baseline, Change Mean ± SD: −2.1 ± 3.4
  TBF-12 total score, Actual Mean ± SD: 12.3 ± 5.5
50 mg/d, Week 4, ITT-LOCF
  Change in the TBF-12 total score from baseline, Change LSMean: −1.4
[6]
  Change in the TBF-12 total score from baseline, Change Mean ± SD: −1.4 ± 3.2
  TBF-12 total score, Actual Mean ± SD: 13.0 ± 4.7
50 mg/d, Week 4, ITT-LOCF, 95% CI [−1.3, 0.1], p-value 0.110
  Change in TBF-12 total score, Neramexane - Placebo LSMean Diff. ± SE: −0.6 ± 0.4
50 mg/d, Week 8, ITT-LOCF
  Change in the TBF-12 total score from baseline, Change LSMean: −2.1
[7]
  Change in the TBF-12 total score from baseline, Change Mean ± SD: −2.2 ± 3.3
  TBF-12 total score, Actual Mean ± SD: 12.3 ± 4.8
50 mg/d, Week 8, ITT-LOCF, 95% CI [−1.1, 0.5], p-value 0.488
  Change in TBF-12 total score, Neramexane - Placebo LSMean Diff. ± SE: −0.3 ± 0.4
50 mg/d, Week 12, ITT-LOCF
  Change in the TBF-12 total score from baseline, Change LSMean: −2.5
[8]
  Change in the TBF-12 total score from baseline, Change Mean ± SD: −2.6 ± 3.8
  TBF-12 total score, Actual Mean ± SD: 11.8 ± 4.9
50 mg/d, Week 12, ITT-LOCF, 95% CI [−1.4, 0.5], p-value 0.357
  Change in TBF-12 total score, Neramexane - Placebo LSMean Diff. ± SE: −0.4 ± 0.5
50 mg/d, Week 16 (end of treatment), ITT-LOCF
  Change in the TBF-12 total score from baseline, Change LSMean: −3.1
[9]
  Change in the TBF-12 total score from baseline, Change Mean ± SD: −3.2 ± 4.1
  TBF-12 total score, Actual Mean ± SD: 11.2 ± 5.1
50 mg/d, Week 16 (end of treatment), ITT-LOCF, 95% CI [−1.8, 0.2], p-value 0.098
  Change in TBF-12 total score, Neramexane - Placebo LSMean Diff. ± SE: −0.8 ± 0.5
50 mg/d, Week 20 (Follow-up), ITT-LOCF, 95% CI [−2.4, −0.2], p-value 0.021
  Change in TBF-12 total score, Neramexane - Placebo LSMean Diff. ± SE: −1.3 ± 0.6
50 mg/d, Week 20 (Follow-up, 4 weeks without treatment), ITT-LOCF
  Change in the TBF-12 total score from baseline, Change LSMean: −3.8
[10]
  Change in the TBF-12 total score from baseline, Change Mean ± SD: −3.9 ± 4.4
  TBF-12 total score, Actual Mean ± SD: 10.4 ± 5.3
75 mg/d, Week 4, ITT-LOCF
  Change in the TBF-12 total score from baseline, Change LSMean: −1.6
[11]
  Change in the TBF-12 total score from baseline, Change Mean ± SD: −1.7 ± 2.7
  TBF-12 total score, Actual Mean ± SD: 12.2 ± 4.3
75 mg/d, Week 4, ITT-LOCF, 95% CI [−1.6, −0.1], p-value 0.026
  Change in TBF-12 total score, Neramexane - Placebo LSMean Diff. ± SE: −0.9 ± 0.4
75 mg/d, Week 8, ITT-LOCF
  Change in the TBF-12 total score from baseline, Change LSMean: −1.9
[12]
  Change in the TBF-12 total score from baseline, Change Mean ± SD: −2.0 ± 3.3
  TBF-12 total score, Actual Mean ± SD: 11.9 ± 4.5
75 mg/d, Week 8, ITT-LOCF, 95% CI [−1.0, 0.7], p-value 0.813
  Change in TBF-12 total score, Neramexane - Placebo LSMean Diff. ± SE: −0.1 ± 0.4
75 mg/d, Week 12, ITT-LOCF
  Change in the TBF-12 total score from baseline, Change LSMean: −2.4
[13]
  Change in the TBF-12 total score from baseline, Change Mean ± SD: −2.5 ± 3.5
  TBF-12 total score, Actual Mean ± SD: 11.4 ± 4.9
75 mg/d, Week 12, ITT-LOCF, 95% CI [−1.3, 0.6], p-value 0.457
  Change in TBF-12 total score, Neramexane - Placebo LSMean Diff. ± SE: −0.4 ± 0.5
75 mg/d, Week 16 (end of treatment), ITT-LOCF
  Change in the TBF-12 total score from baseline, Change LSMean: −2.8
[14]
  Change in the TBF-12 total score from baseline, Change Mean ± SD: −2.9 ± 3.9
  TBF-12 total score, Actual Mean ± SD: 11.0 ± 5.1
75 mg/d, Week 16 (end of treatment), ITT-LOCF, 95% CI [−1.6, 0.5], p-value 0.289
  Change in TBF-12 total score, Neramexane - Placebo LSMean Diff. ± SE: −0.5 ± 0.5
75 mg/d, Week 20 (Follow-up), ITT-LOCF, 95% CI [−1.8, 0.5], p-value 0.244
  Change in TBF-12 total score, Neramexane - Placebo LSMean Diff. ± SE: −0.7 ± 0.6
75 mg/d, Week 20 (Follow-up, 4 weeks without treatment), ITT-LOCF
  Change in the TBF-12 total score from baseline, Change LSMean: −3.2
[15]
  Change in the TBF-12 total score from baseline, Change Mean ± SD: −3.3 ± 3.6
  TBF-12 total score, Actual Mean ± SD: 10.5 ± 4.9
After drug withdrawal
  Capability for improvement of tinnitus after withdrawal (conclusion of pilot trial): sustained improvement of tinnitus even after the drug is withdrawn
Subjects who had received low-dose (25 mg)
  Further improvement of tinnitus during 4-week wash-out period without any medication: not reported

## CC1(C)CC(C)(C)CC(C)(N)C1.CS(=O)(=O)O [neramexane mesylate]
After 16-week double-blind treatment (Visit 6), final daily doses of 50 or 75 mg, distinct from placebo or low-dose (25 mg) groups
  Improvement of tinnitus as measured by the TBF-12: clear improvement of their tinnitus
End of the 4-week wash-out (Week 20, Visit 7), 50 mg
  Differences in TBF-12 improvement between the 50 mg and the placebo group: reached statistical significance
Subjects previously treated with either 50 or 75 mg
  Improvement of tinnitus during 4-week wash-out period without any medication: further relevant improvement of their tinnitus
